# Laboratory results published in publication PMC10300102, “In vivo inhibition of nuclear ACE2 translocation protects against SARS-CoV-2 replication and lung damage through epigenetic imprinting” (Nature Communications, 2023).
# Like-named read-outs stand apart in the source and are kept apart here. Where a SMILES comes first, the peptide text is derived from it. The star is where a group is joined. Myristoyl = CCCCCCCCCCCCCC(=O)*
# Experiments:
# Mouse tolerance studies = type: in vivo, C57BL/6 J mice; parameters: Mouse organ weight - i.v. treatment, Brain / Mouse organ weight - i.v. treatment, Heart / Mouse organ weight - i.v. treatment, Kidney / Mouse organ weight - i.v. treatment, Liver / Mouse organ weight - i.v. treatment, Lungs / Mouse organ weight - i.v. treatment, Spleen: unit not given here
# Description: For NACE2i intraperitoneal (i.p.) studies, female C57BL/6 J mice (6-8 weeks, 3 per group) were treated with a single bolus dose of NACE2i at 3, 10, 30, or 100 mg/kg intraperitoneally for seven days. For NACE2i intravenous (i.v.) studies, male C57BL/6 J mice (6–8 weeks, 5 per group) were treated with daily bolus doses of either sodium chloride 0.9% vehicle or NACE2i at 3, 10, or 30 mg/kg intravenously for six days. For ACE2i studies, male C57BL/6 J mice (6 weeks, 5 per group) were treated with daily bolus doses of either saline vehicle or ACE2i at 10, 30, or 100 mg/kg intravenously or at 3, 10, and 30 mg/kg intranasally (i.n.) for six days. All treatments were administered on day 1, and all mice were observed and weighed daily prior to being euthanized for organ examination. All mice were purchased from the Animal Resources Centre (Canning Vale, Western Australia, Australia) and studies were carried out by Agilex Biolabs (St Lucia, Queensland, Australia). Animals were maintained in housing rooms under controlled environmental conditions: individually ventilated cages (IVCs) with a 12/12 light/dark cycle. The ambient temperature is set to 20–25 °C and relative humidity at 30-70% rH. The University of Queensland Animal Ethics Committee assessed and approved all studies (project code 2021/AE000659).
# H3K27ac in CD14+ PBMCs = test: H3K27ac nuclear fluorescence intensity and clock scan in CD14+ PBMCs; type: cell-based, human; settings: CD14+ PBMCs of PB and PI patients
# [1] = hamsters, escalating daily i.p. doses up to 100 mg/kg
# [2] = i.p. single bolus 10 mg/kg, n=3
# [3] = i.p. single bolus 30 mg/kg, n=3
# [4] = i.p. single bolus 100 mg/kg, n=3
# [5] = i.v. daily for 6 days 3 mg/kg, n=5
# [6] = i.v. daily for 6 days 10 mg/kg, n=5
# [7] = i.v. daily for 6 days 30 mg/kg, n=5
structure (smiles),measurement,setting,value
CCCCCCCCCCCCCC(=O)N[C@H](C(=O)NCC(=O)N[C@H](C(=O)N[C@@H](CCCNC(=N)N)C(=O)N[C@@H](CC(=O)O)C(=O)N[C@@H](CCCNC(=N)N)C(=O)N[C@@H](CCCCN)C(=O)N[C@@H](CCCCN)C(=O)N[C@@H](CCCCN)C(=O)N[C@@H](CC(N)=O)C(=O)N[C@@H](CCCCN)C(=O)N[C@@H](C)C(=O)N[C@@H](CCCNC(=N)N)C(=O)N[C@@H](CO)C(=O)O)[C@@H](C)CC)[C@@H](C)O [NACE2i] (Myristoyl-TGIRDRKKKNKARS-OH),"Mouse organ weight - i.v. treatment, Kidney","Mouse tolerance studies; S 1f, i.v. 10 mg/kg, mean, N 5",258.06
same,"Mouse organ weight - i.v. treatment, Liver","Mouse tolerance studies; S 1f, i.v. 10 mg/kg, mean, N 5",1432.4
same,"Mouse organ weight - i.v. treatment, Lungs","Mouse tolerance studies; S 1f, i.v. 10 mg/kg, mean, N 5",140.86
same,"Mouse organ weight - i.v. treatment, Spleen","Mouse tolerance studies; S 1f, i.v. 10 mg/kg, mean, N 5",79.75
same,"Mouse organ weight - i.v. treatment, Brain","Mouse tolerance studies; S 1f, i.v. 30 mg/kg, mean, N 5",422.35
same,"Mouse organ weight - i.v. treatment, Heart","Mouse tolerance studies; S 1f, i.v. 30 mg/kg, mean, N 5",102.55
same,"Mouse organ weight - i.v. treatment, Kidney","Mouse tolerance studies; S 1f, i.v. 30 mg/kg, mean, N 5",221.42
same,"Mouse organ weight - i.v. treatment, Liver","Mouse tolerance studies; S 1f, i.v. 30 mg/kg, mean, N 5",1090.2
same,"Mouse organ weight - i.v. treatment, Lungs","Mouse tolerance studies; S 1f, i.v. 30 mg/kg, mean, N 5",130.37
same,"Mouse organ weight - i.v. treatment, Spleen","Mouse tolerance studies; S 1f, i.v. 30 mg/kg, mean, N 5",68.35
same,body weight,"Mouse tolerance studies; female C57BL/6 J mice, single i.p. bolus up to 100 mg/kg, seven days",without significant changes in body weight
same,"Diarrhoea, mild (number of mice)","Mouse tolerance studies; i.p. single bolus 3 mg/kg, n=3",0
same,No abnormalities (number of mice),"Mouse tolerance studies; i.p. single bolus 3 mg/kg, n=3",3
same,"Palpebral closure, mild (number of mice)","Mouse tolerance studies; i.p. single bolus 3 mg/kg, n=3",0
same,"Piloerection, mild (number of mice)","Mouse tolerance studies; i.p. single bolus 3 mg/kg, n=3",0
same,"Reduced activity, mild (number of mice)","Mouse tolerance studies; i.p. single bolus 3 mg/kg, n=3",0
same,"Reduced activity, moderate (number of mice)","Mouse tolerance studies; i.p. single bolus 3 mg/kg, n=3",0
same,"Right limb raised, mild (number of mice)","Mouse tolerance studies; i.p. single bolus 3 mg/kg, n=3",0
same,"Diarrhoea, mild (number of mice)",Mouse tolerance studies; [2],0
same,No abnormalities (number of mice),Mouse tolerance studies; [2],3
same,"Palpebral closure, mild (number of mice)",Mouse tolerance studies; [2],0
same,"Piloerection, mild (number of mice)",Mouse tolerance studies; [2],0
same,"Reduced activity, mild (number of mice)",Mouse tolerance studies; [2],0
same,"Reduced activity, moderate (number of mice)",Mouse tolerance studies; [2],0
same,"Right limb raised, mild (number of mice)",Mouse tolerance studies; [2],0
same,"Diarrhoea, mild (number of mice)",Mouse tolerance studies; [3],0
same,No abnormalities (number of mice),Mouse tolerance studies; [3],0
same,"Palpebral closure, mild (number of mice)",Mouse tolerance studies; [3],1
same,"Piloerection, mild (number of mice)",Mouse tolerance studies; [3],0
same,"Reduced activity, mild (number of mice)",Mouse tolerance studies; [3],3
same,"Reduced activity, moderate (number of mice)",Mouse tolerance studies; [3],0
same,"Right limb raised, mild (number of mice)",Mouse tolerance studies; [3],3
same,"Diarrhoea, mild (number of mice)",Mouse tolerance studies; [4],1
same,No abnormalities (number of mice),Mouse tolerance studies; [4],0
same,"Palpebral closure, mild (number of mice)",Mouse tolerance studies; [4],0
same,"Piloerection, mild (number of mice)",Mouse tolerance studies; [4],2
same,"Reduced activity, mild (number of mice)",Mouse tolerance studies; [4],2
same,"Reduced activity, moderate (number of mice)",Mouse tolerance studies; [4],2
same,"Right limb raised, mild (number of mice)",Mouse tolerance studies; [4],0
same,"Hunched posture, mild (number of mice)",Mouse tolerance studies; [5],0
same,No abnormalities (number of mice),Mouse tolerance studies; [5],5
same,"Palpebral closure, mild (number of mice)",Mouse tolerance studies; [5],0
same,"Piloerection, mild (number of mice)",Mouse tolerance studies; [5],0
same,"Reduced activity, mild (number of mice)",Mouse tolerance studies; [5],0
same,"Reduced activity, moderate (number of mice)",Mouse tolerance studies; [5],0
same,"Tremors, mild (number of mice)",Mouse tolerance studies; [5],0
same,"Hunched posture, mild (number of mice)",Mouse tolerance studies; [6],0
same,No abnormalities (number of mice),Mouse tolerance studies; [6],5
same,"Palpebral closure, mild (number of mice)",Mouse tolerance studies; [6],0
same,"Piloerection, mild (number of mice)",Mouse tolerance studies; [6],0
same,"Reduced activity, mild (number of mice)",Mouse tolerance studies; [6],0
same,"Reduced activity, moderate (number of mice)",Mouse tolerance studies; [6],0
same,"Hunched posture, mild (number of mice)",Mouse tolerance studies; [7],1
same,No abnormalities (number of mice),Mouse tolerance studies; [7],0
same,"Palpebral closure, mild (number of mice)",Mouse tolerance studies; [7],1
same,"Piloerection, mild (number of mice)",Mouse tolerance studies; [7],0
same,"Reduced activity, mild (number of mice)",Mouse tolerance studies; [7],4
same,"Reduced activity, moderate (number of mice)",Mouse tolerance studies; [7],5
same,"Tremors, mild (number of mice)",Mouse tolerance studies; [7],5
same,body or organ weight,"Mouse tolerance studies; male C57BL/6 J mice, daily i.v. bolus up to 30 mg/kg for six days",without significant changes in body or organ weight
same,H3K7ac mark,H3K27ac in CD14+ PBMCs,successfully induced
same,body temperature,[1],minimal changes in body temperature
same,body weight,[1],without a decrease in body weight
same,discomfort,[1],no observable discomfort
